Patent US20050250677A1, “Glycopeptide antibiotic derivatives” (priority 2002, published 2005)
“Also recorded” adds a separate entry of the source. Read-outs that look alike come from different tables or passages of the source.

How the values were obtained:
[1] = tested on: HIV-1 (IIIB); experiment: Inhibition of HIV-1 (IIIB)-induced cytopathicity (giant cell formation) in CEM cells; assay type: cell-based
Experimental: (§1) A variety of glycopeptide antibiotic derivatives of vancomycin, eremomycin and teicoplanin including their aglycon derivatives were evaluated for their inhibitory activity against HIV-1 (IIIB) and HIV-2(ROD) in CEM cell cultures.

[2] = tested on: HIV-2(ROD); experiment: Inhibition of HIV-2 (ROD)-induced cytopathicity (giant cell formation) in CEM cells; assay type: cell-based
Experimental: as §1

[3] = tested on: murine leukemia L1210; experiment: Cytostatic activity assay, L1210 cells; assay type: cell-based; conditions: read-out: IC50 L1210 (compound concentration required to inhibit tumor cell proliferation by 50%)
[4] = tested on: human lymphocyte Molt4/clone 8; experiment: Cytostatic activity assay, Molt4/clone 8 cells; assay type: cell-based; conditions: read-out: IC50 Molt4/C8 (compound concentration required to inhibit tumor cell proliferation by 50%)
[5] = tested on: human lymphocyte CEM; experiment: Cytostatic activity assay, CEM cells; assay type: cell-based; conditions: read-out: IC50 CEM (compound concentration required to inhibit tumor cell proliferation by 50%)
[6] = tested on: FCV; experiment: Feline corona virus assay in Feline Crandel kidney cells (MTS); assay type: cell-based
Experimental: Feline Crandel kidney cells were seeded in 96-well microtiter plates at 24,000 cells/well. Then, 24 hrs later, an appropriate inoculum of FCV is added together with 5-fold dilutions of the test compounds. After 4 days, a MTS/PMS solution was added to each well. Following a 90 min incubation period at 37° C., the optical density of the wells was read at 498 nm in a microplate reader.

[7] = tested on: SARS virus (strain Frankfurt-1); experiment: microbe, parasite or virus in culture; assay type: cell-based, human corona (SARS) virus
[8] = tested on: FCK cells
[9] = tested on: Vero cells; conditions: read-out: CC50 Vero
[10] = tested on: VZV (wild-type strains); experiment: Anti-VZV assay (wild-type strains): virus-induced cytopathicity in HEL cell cultures; assay type: cell-based, varicella-zoster virus; conditions: HEL cell cultures
[11] = tested on: HEL cells; conditions: anti-VZV table
[12] = tested on: HEL cells; conditions: read-out: CC50 (HEL); HEL cells; anti-VZV table
[13] = HIV-1 (IIIB), CEM cell cultures, read-out: EC50 against HIV-1
[14] = read-out: EC50 HIV-1 (concentration required to inhibit HIV-induced giant cell formation by 50%), HIV-1, CEM cell cultures
[15] = read-out: EC50 HIV-2 (concentration required to inhibit HIV-induced giant cell formation by 50%), HIV-2, CEM cell cultures
[16] = FCV in FCK cells, read-out: EC50 FCV
[17] = SARS virus in Vero cells, read-out: EC50 SARS virus
[18] = VZV strain OKA, read-out: EC50 VZV (OKA)
[19] = VZV strain YS, read-out: EC50 VZV (YS)

`CCCCc1ccc(CN2CCN(Cc3c(O)cc4c(c3O)-c3cc(ccc3O)C3NC(=O)C5NC(=O)C(CC(N)=O)NC(=O)C(NC(=O)C(CC(C)C)NC)C(O)c6ccc(c(Cl)c6)Oc6cc5cc(c6OC5OC(CO)C(O)C(O)C5OC5CC(C)(N)C(O)C(C)O5)Oc5ccc(cc5Cl)C(O)C(NC3=O)C(=O)NC4C(=O)O)CC2)cc1` (centres unmarked) [Compound 1] was tested, and the EC50 [1, 13] was 5.5 µM, the EC50 [1, 14] was 12 ± 3.5 µM and the EC50 [2, 15] was 22 ± 3.5 µM. For the same compound, the IC50 [3] was 53 ± 9 µM, the IC50 [4] was over 100 µM and the IC50 [5] was over 100 µM. The EC50 [6, 16] was 30 µM, the EC50 ([6]; read-out: EC50 against FCV) was 30 to 43 µM and the EC50 [7, 17] was 43 µM. For the same compound, the EC50 ([7]; read-out: EC50 against SARS virus) was 30 to 43 µM, the CC50 ([8]; read-out: CC50 FCK, FCK cells) was over 50 µM and the CC50 [9] was over 100 µM.

`CCCCc1ccc(CN2CCN(Cc3c(O)cc4c(c3O)-c3cc(ccc3O)C3NC(=O)C5NC(=O)C(CC(N)=O)NC(=O)C(NC(=O)C(CC(C)C)NC)C(O)c6ccc(c(Cl)c6)Oc6cc5cc(c6OC5OC(CO)C(O)C(O)C5OC5CC(C)(N)C(O)C(C)O5)Oc5ccc(cc5)C(OC5CC(C)(N)C(O)C(C)O5)C(NC3=O)C(=O)NC4C(=O)NC)CC2)cc1` (centres unmarked) [Compound 5] was tested, and the EC50 [1, 13] was 0.43 µM, the EC50 [2, 15] was over 10 µM and the IC50 [3] was 24 ± 0.4 µM. For the same compound, the IC50 [4] was 17 ± 3 µM, the IC50 [5] was 40 ± 4 µM and the “activity against FCV” value [6] was “active; also recorded: pronounced activity”. The EC50 [6, 16] was 5.4 µM, the EC50 [7, 17] was 13 µM and the CC50 ([8]; read-out: CC50 FCK, FCK cells) was 28 µM. For the same compound, the CC50 [9] was 54 µM.

For `CN(C)CCCNC(=O)C1NC(=O)C2NC(=O)C(NC(=O)C3NC(=O)C4NC(=O)C(Cc5ccc(c(Cl)c5)Oc5cc3cc(c5O)Oc3ccc(cc3Cl)C2O)NC(=O)C(N)c2ccc(O)c(c2)Oc2cc(O)cc4c2)c2ccc(O)c(c2)-c2c1cc(O)c(CN1CCN(Cc3ccc(-c4ccccc4)cc3)CC1)c2O` (centres unmarked) [Compound 28], the EC50 [1, 14] was 3.5 ± 0.7 µM, the EC50 [2, 15] was 8.5 ± 2.1 µM and the IC50 [3] was 318 ± 256 µM. The IC50 [4] was over 500 µM, the IC50 [5] was over 500 µM and the EC50 [10, 18] was 2.5 µM. The EC50 [10, 19] was 2 µM, the EC50 [6, 16] was over 50 µM and the EC50 [7, 17] was 16 µM. For the same compound, the “MTC (HEL)” value [11] was “≧5-20 μM”, the CC50 [12] was 105 µM and the CC50 ([8]; read-out: CC50 FCK, FCK cells) was 21 µM. For the same compound, the CC50 [9] was over 100 µM.

`NCCCCCCNC(=O)C1NC(=O)C2NC(=O)C(NC(=O)C3NC(=O)C4NC(=O)C(Cc5ccc(c(Cl)c5)Oc5cc3cc(c5O)Oc3ccc(cc3Cl)C2O)NC(=O)C(N)c2ccc(O)c(c2)Oc2cc(O)cc4c2)c2ccc(O)c(c2)-c2c(O)cc(O)cc21` (centres unmarked) [Compound 41] showed an EC50 [1, 14] of 15 µM, an EC50 [2, 15] of 17.5 ± 3.5 µM and an IC50 [3] of over 500 µM. The IC50 [4] was over 500 µM, the IC50 [5] was over 500 µM and the EC50 [10, 18] was over 5 µM. The EC50 [10, 19] was 12 µM, the EC50 [6, 16] was 21 µM and the EC50 [7, 17] was 44 µM. The “MTC (HEL)” value [11] was “≧20-50 μM”, the CC50 [12] was 190 µM and the CC50 ([8]; read-out: CC50 FCK, FCK cells) was over 50 µM. For the same compound, the CC50 [9] was over 100 µM.

`COC(=O)C1NC(=O)C2NC(=O)C(NC(=O)C(NC(=O)OC(C)(C)C)c3cc(Oc4ccc(CC(NC(=O)OCc5ccccc5)C(=O)O)cc4Cl)c(O)c(c3)Oc3ccc(cc3Cl)C2O)c2ccc(O)c(c2)-c2c1cc(O)c(CNC1C3CC4CC(C3)CC1C4)c2O` (centres unmarked) [Compound 53] showed an EC50 [1, 14] of 17 ± 3.5 µM, an EC50 [2, 15] of 11 ± 5.7 µM and an IC50 [3] of 95 ± 10 µM. The IC50 [4] was 122 ± 13 µM, the IC50 [5] was 240 ± 13 µM and the EC50 [6, 16] was 36 µM. The EC50 [7, 17] was 29 µM, the CC50 [8] was at least 100 µM and the CC50 [9] was over 100 µM.

Work on `COC(=O)C1NC(=O)C2NC(=O)C(NC(=O)C(N)c3cc(Oc4ccc(CC(NC(=O)OCc5ccccc5)C(=O)O)cc4Cl)c(O)c(c3)Oc3ccc(cc3Cl)C2O)c2ccc(O)c(c2)-c2c1cc(O)c(CNC1C3CC4CC(C3)CC1C4)c2O` (centres unmarked) [Compound 54] yielded an EC50 [1, 14] of 17 ± 3.5 µM, an EC50 [2, 15] of 37 ± 18 µM and an IC50 [3] of 181 ± 4 µM. The IC50 [4] was over 250 µM, the IC50 [5] was over 250 µM and the EC50 [6, 16] was 19 µM. The EC50 [7, 17] was 47 µM, the CC50 [8] was over 50 µM and the CC50 [9] was over 100 µM.

For `NC1Cc2ccc(c(Cl)c2)Oc2cc3cc(c2O)Oc2ccc(cc2Cl)C(O)C2NC(=O)C(NC(=O)C3NC(=O)C(c3cc(O)cc(Oc4cc(C5NC(=S)N(c6ccccc6)C5=O)ccc4O)c3)NC1=O)c1ccc(O)c(c1)-c1c(cc(O)c(CNC3C4CC5CC(C4)CC3C5)c1O)C(C(=O)O)NC2=O` (centres unmarked) [Compound 55], the EC50 [1, 13] was 13 µM, the EC50 ([2]; HIV-2(ROD), CEM cell cultures, read-out: EC50 against HIV-2) was 17 µM and the IC50 [3] was 73 ± 24 µM. For the same compound, the IC50 [4] was at least 250 µM, the IC50 [5] was 242 ± 11 µM and the EC50 [6, 16] was 22 µM. The EC50 [7, 17] was 31 µM, the CC50 [8] was over 100 µM and the CC50 [9] was over 100 µM.

`CCCCCCCCCCCCNCc1c(O)cc2c(c1O)-c1cc(ccc1O)C1NC(=O)C3NC(=O)C(CC(N)=O)NC(=O)C(NC(=O)C(CC(C)C)NC)C(O)c4ccc(c(Cl)c4)Oc4cc3cc(c4OC3OC(CO)C(O)C(O)C3OC3CC(C)(N)C(O)C(C)O3)Oc3ccc(cc3)C(OC3CC(C)(N)C(O)C(C)O3)C(NC1=O)C(=O)NC2C(=O)O` (centres unmarked) [Compound 64] was tested, and the “activity against FCV” value [6] was “active”, the EC50 [6, 16] was 8.2 µM and the EC50 [7, 17] was 31 µM. The CC50 ([8]; read-out: CC50 FCK, FCK cells) was 75 µM and the CC50 [9] was over 100 µM.
